Laboratory results reported in US20230015949A1, “NEISSERIA TREATMENT USING CANNABINOIDS” (priority 2019, published 2023).
Values after ≈ are worked out from the molar mass of the structure shown. Read-outs that look alike come from different tables or passages of the source.

How the values were obtained:
Neisseria gonorrhoeae = assay: Broth microdilution MIC assay, 30 isolates (Example 2); assay type: cell-based
Procedure: In this study, the in vitro spectrum of activity of CBD was determined against 30 isolates comprised of reference strains from the WHO, isolates from the CDC antibiotic resistance bank, and clinical isolates from the Micromyx (MMX) repository, with different resistance phenotypes. Assays were conducted following guidelines recommended by the Clinical and Laboratory Standards Institute (CLSI; 1, 2) with the exception that broth microdilution was used instead of agar dilution.
Stock solutions of all compounds were prepared on the day of testing using solvents recommended by CLSI. Stock solutions of all compounds were made at 101× the final testing concentration. CBD was supplied by Cerilliant (Round Rock, Tex.) as a 1 mg/mL methanolic solution which was stored at −20° C. after receipt. Prior to testing, using a 5 mL aliquot of the CBD methanolic solution, the methanol was dried off and the residual CBD was resuspended in 774 μL DMSO resulting in a 6.464 mg/mL solution.
The test organisms evaluated in this study consisted of Neisseria gonorrhoeae isolates from the Micromyx repository and reference isolates from the American Type Culture Collection (ATCC; Manassas, Va.), Centers for Disease Control and Prevention (CDC; Atlanta, Ga.) or the National Collection of Type Cultures (NCTC; Public Health England, Salisbury, UK). Upon initial receipt at Micromyx, the organisms were sub-cultured onto an appropriate agar medium.
(§1) Following incubation, colonies were harvested from these plates and cell suspensions prepared and frozen at −80° C. with a cryoprotectant. Prior to testing, N. gonorrhoeae isolates were streaked onto Chocolate Agar [Becton Dickinson, (BD), Sparks, Md.; Lot No. 922807]; Staphylococcus aureus ATCC 29213 tested for quality control (QC) purposes was streaked onto Trypticase Soy Agar with 5% Sheep Blood (TSA II; BD; Lot No. 9219399).
For N. gonorrhoeae, a modified medium described by the ATCC as capable of supporting the growth of N. gonorrhoeae (Neisseria peptone medium) was used for the broth microdilution MIC assay. This medium contained 15 g Oxoid Special Peptone (Lot No. 1280296; Oxoid, Hampshire, UK), 1 g corn starch (Lot No. AD-13344-14; Ward's Science; Rochester, N.Y.), 5 g NaCl (Lot No. 57897; VWR, Radnor, Pa.), 4 g K2HPO4 (Lot No. SLBT7061; Sigma), and 1 g KH2PO4 (Lot No. SLBC1921V; Sigma). After autoclaving, the medium was centrifuged at 5,000×g for 10 min, the supernatant was passed through a 0.45 μm filter, and IsoVitaleX supplement (Lot No. 8323954; BD) was added at 1% (v/v).
(§2) MIC values were determined using a broth microdilution procedure described by CLSI (1, 2). Automated liquid handlers (Multidrop 384, Labsystems, Helsinki, Finland; Biomek 2000 and Biomek FX, Beckman Coulter, Fullerton Calif.) were used to conduct serial dilutions and liquid transfers.
(§3) To prepare the drug mother plates, which would provide the serial drug dilutions for the replicate daughter plates, the wells of columns 2 through 12 of standard 96-well microdilution plates (Costar 3795) were filled with 150 μl of the designated diluent for each row of drug. The test articles and comparator compounds (300 μl at 100× the highest concentration to be tested) were dispensed into the appropriate wells in column 1. The Biomek 2000 was then used to make 2-fold serial dilutions in the mother plates from column 1 through column 11. The wells of column 12 contained no drug and served as the organism growth control wells for the assay.
(§4) The daughter plates were loaded with 190 μL per well of the appropriate test medium for the tested organism using the Multidrop 384. The daughter plates were completed on the Biomek FX instrument which transferred 2 μL of drug solution from each well of a mother plate to the corresponding well of each daughter plate in a single step. Daughter plates for the testing of anaerobes were allowed to pre-reduce in the Bactron II anaerobe chamber for 2 hr prior to inoculation.

[1] = tested on: Staphylococcus aureus ATCC 29213; assay: Broth microdilution MIC assay, quality control strain (Example 2); assay type: cell-based; conditions: ATCC29213, S. aureus ATCC 29213 (QC), CAMHB
Procedure: as §1
Cation-adjusted Mueller Hinton broth (CAMHB; BD; Lot No. 9019592) was used for MIC testing of S. aureus ATCC 29213 for QC purposes.
as §2, §3, §4
A standardized inoculum of each test organism was prepared per CLSI methods (1, 2). The inoculum for each organism was dispensed into sterile reservoirs divided by length (Beckman Coulter), and the Biomek 2000 was used to inoculate the plates. Daughter plates were placed on the Biomek 2000 work surface in reverse orientation so that inoculation took place from low to high drug concentration. Anaerobic organisms were inoculated by hand in the Bactron II anaerobic chamber. Bacterial plates were then inoculated with 10 μL of the inoculum resulting in a final cell density of approximately 5×10^5 CFU/mL.
Plates were stacked 3 to 4 high, covered with a lid on the top plate and placed in plastic bags. […] The MIC was read and recorded as the lowest concentration of drug that inhibited visible growth of the organism.

[2] = 30 isolates of N. gonorrhoeae, broth microdilution, MIC distribution
[3] = 30 isolates, broth dilution assay, MIC distribution (Table 6)

With `CC[C@H]1OC(=O)[C@H](C)[C@@H](O[C@H]2C[C@@](C)(OC)[C@@H](O)[C@H](C)O2)[C@H](C)[C@@H](O[C@@H]2O[C@H](C)C[C@H](N(C)C)[C@H]2O)[C@](C)(O)C[C@@H](C)CN(C)[C@H](C)[C@@H](O)[C@]1(C)O` [AZI, azithromycin] the MIC (Neisseria gonorrhoeae) was 0.25 µg/mL (≈ 0.334 µM), the MIC90 (Neisseria gonorrhoeae; 30 isolates of N. gonorrhoeae, broth microdilution) was over 8 µg/mL and the “Number of isolates at MIC value 0.015 μg/mL” value (Neisseria gonorrhoeae; [2]) was 0. The “Number of isolates at MIC value 0.03 μg/mL” value (Neisseria gonorrhoeae; [2]) was 0, the “Number of isolates at MIC value 0.06 μg/mL” value (Neisseria gonorrhoeae; [2]) was 2 and the “Number of isolates at MIC value 0.5 μg/mL” value (Neisseria gonorrhoeae; [2]) was 2. The “Number of isolates at MIC value 1 μg/mL” value (Neisseria gonorrhoeae; [2]) was 1, the “Number of isolates at MIC value 2 μg/mL” value (Neisseria gonorrhoeae; [2]) was 2 and the “Number of isolates at MIC value 4 μg/mL” value (Neisseria gonorrhoeae; [2]) was 1. The “Number of isolates at MIC value 8 μg/mL” value (Neisseria gonorrhoeae; [2]) was 1, the “Number of isolates at MIC value >8 μg/mL” value (Neisseria gonorrhoeae; [2]) was 4 and the “Number of isolates at MIC 0.08 μg mL^−1” value (Neisseria gonorrhoeae; [3]) was 0. The “Number of isolates at MIC ≤0.004 μg mL^−1” value (Neisseria gonorrhoeae; [3]) was 0, the MIC (Neisseria gonorrhoeae; Neisseria gonorrhoeae, ATCC49226, N. gonorrhoeae ATCC 49226 (QC), broth microdilution, read-out: MIC) was 0.25 µg/mL (≈ 0.334 µM) and the MIC (Neisseria gonorrhoeae; Neisseria gonorrhoeae, N. gonorrhoeae CDC 0165 (CIP-R, AZI MIC 1), broth microdilution, read-out: MIC) was 1 µg/mL (≈ 1.34 µM). The MIC (Neisseria gonorrhoeae; Neisseria gonorrhoeae, N. gonorrhoeae CDC 0166 (CIP-R, AZI MIC 1), broth microdilution, read-out: MIC) was 0.5 µg/mL (≈ 0.668 µM), the MIC (Neisseria gonorrhoeae; Neisseria gonorrhoeae, N. gonorrhoeae CDC 0167 (CIP-S, AZI MIC 8), broth microdilution, read-out: MIC) was over 8 µg/mL and the MIC (Neisseria gonorrhoeae; Neisseria gonorrhoeae, N. gonorrhoeae CDC 0172 (CIP-R, AZI MIC 0.5), broth microdilution, read-out: MIC) was 0.25 µg/mL (≈ 0.334 µM). It also gave an MIC (Neisseria gonorrhoeae; Neisseria gonorrhoeae, N. gonorrhoeae CDC 0175 (CIP-S, AZI MIC 16), broth microdilution, read-out: MIC) of over 8 µg/mL, an MIC (Neisseria gonorrhoeae; Neisseria gonorrhoeae, N. gonorrhoeae CDC 0177 (CIP-S, AZI MIC 2), broth microdilution, read-out: MIC) of 2 µg/mL (≈ 2.67 µM) and an MIC (Neisseria gonorrhoeae; Neisseria gonorrhoeae, N. gonorrhoeae CDC 0181 (CIP-S, AZI MIC 256), broth microdilution, read-out: MIC) of over 8 µg/mL. For the same compound, the MIC (Neisseria gonorrhoeae; Neisseria gonorrhoeae, N. gonorrhoeae CDC 0194 (CRO-NS, CIP-S, AZI MIC 0.5), broth microdilution, read-out: MIC) was 0.25 µg/mL (≈ 0.334 µM), the MIC (Neisseria gonorrhoeae; Neisseria gonorrhoeae, N. gonorrhoeae MMX 6921 (CIP-R), broth microdilution, read-out: MIC) was 8 µg/mL (≈ 10.7 µM) and the MIC (Neisseria gonorrhoeae; Neisseria gonorrhoeae, N. gonorrhoeae MMX 6938 (CIP-S), broth microdilution, read-out: MIC) was 0.25 µg/mL (≈ 0.334 µM). For the same compound, the MIC (Neisseria gonorrhoeae; Neisseria gonorrhoeae, N. gonorrhoeae MMX 10409 (CIP-R), broth microdilution, read-out: MIC) was 0.25 µg/mL (≈ 0.334 µM), the MIC (Neisseria gonorrhoeae; Neisseria gonorrhoeae, N. gonorrhoeae MMX 10410 (CIP-S), broth microdilution, read-out: MIC) was 0.12 µg/mL (≈ 0.16 µM) and the MIC (Neisseria gonorrhoeae; Neisseria gonorrhoeae, N. gonorrhoeae MMX 10447 (CIP-S), broth microdilution, read-out: MIC) was 0.06 µg/mL (≈ 0.0801 µM). For the same compound, the MIC (Neisseria gonorrhoeae; Neisseria gonorrhoeae, N. gonorrhoeae MMX 10450 (CIP-S), broth microdilution, read-out: MIC) was 0.12 µg/mL (≈ 0.16 µM), the MIC (Neisseria gonorrhoeae; Neisseria gonorrhoeae, N. gonorrhoeae MMX 10452 (CIP-R), broth microdilution, read-out: MIC) was 0.12 µg/mL (≈ 0.16 µM) and the MIC (Neisseria gonorrhoeae; Neisseria gonorrhoeae, N. gonorrhoeae MMX 10454 (CIP-R), broth microdilution, read-out: MIC) was 0.12 µg/mL (≈ 0.16 µM). It also gave an MIC (Neisseria gonorrhoeae; Neisseria gonorrhoeae, NCTC13477, N. gonorrhoeae NCTC 13477 (WHO F; CIP-S, AZI MIC […]), broth microdilution, read-out: MIC) of 0.06 µg/mL (≈ 0.0801 µM), an MIC (Neisseria gonorrhoeae; Neisseria gonorrhoeae, NCTC13478, N. gonorrhoeae NCTC 13478 (WHO G; CIP-I, AZI MIC […]), broth microdilution, read-out: MIC) of 0.25 µg/mL (≈ 0.334 µM) and an MIC (Neisseria gonorrhoeae; Neisseria gonorrhoeae, NCTC13479, N. gonorrhoeae NCTC 13479 (WHO K; CIP-R, AZI MIC […]), broth microdilution, read-out: MIC) of 0.25 µg/mL (≈ 0.334 µM). The MIC (Neisseria gonorrhoeae; Neisseria gonorrhoeae, NCTC13480, N. gonorrhoeae NCTC 13480 (WHO L; CIP-R, AZI MIC 0.5), broth microdilution, read-out: MIC) was 0.25 µg/mL (≈ 0.334 µM), the MIC (Neisseria gonorrhoeae; Neisseria gonorrhoeae, NCTC13481, N. gonorrhoeae NCTC 13481 (WHO M; CIP-R, AZI MIC […]), broth microdilution, read-out: MIC) was 0.12 µg/mL (≈ 0.16 µM) and the MIC (Neisseria gonorrhoeae; Neisseria gonorrhoeae, NCTC13482, N. gonorrhoeae NCTC 13482 (WHO N; CIP-R, AZI MIC […]), broth microdilution, read-out: MIC) was 0.12 µg/mL (≈ 0.16 µM). For the same compound, the MIC (Neisseria gonorrhoeae; Neisseria gonorrhoeae, NCTC13483, N. gonorrhoeae NCTC 13483 (WHO O; CIP-S, AZI MIC […]), broth microdilution, read-out: MIC) was 0.25 µg/mL (≈ 0.334 µM), the MIC (Neisseria gonorrhoeae; Neisseria gonorrhoeae, NCTC13484, N. gonorrhoeae NCTC 13484 (WHO P; CIP-S, AZI MIC 4), broth microdilution, read-out: MIC) was 4 µg/mL (≈ 5.34 µM) and the MIC (Neisseria gonorrhoeae; Neisseria gonorrhoeae, NCTC13817, N. gonorrhoeae NCTC 13817 (WHO U; CIP-S, AZI MIC 4), broth microdilution, read-out: MIC) was 2 µg/mL (≈ 2.67 µM). It also gave an MIC (Neisseria gonorrhoeae; Neisseria gonorrhoeae, NCTC13818, N. gonorrhoeae NCTC 13818 (WHO V; CIP-R, AZI MIC >256), broth microdilution, read-out: MIC) of over 8 µg/mL, an MIC (Neisseria gonorrhoeae; Neisseria gonorrhoeae, NCTC13819, N. gonorrhoeae NCTC 13819 (WHO W; CIP-R, AZI MIC 0.5), broth microdilution, read-out: MIC) of 0.25 µg/mL (≈ 0.334 µM) and an MIC (Neisseria gonorrhoeae; Neisseria gonorrhoeae, NCTC13820, N. gonorrhoeae NCTC 13820 (WHO X; CRO-NS, CIP-R, AZI MIC 0.5), broth microdilution, read-out: MIC) of 0.25 µg/mL (≈ 0.334 µM). For the same compound, the MIC (Neisseria gonorrhoeae; Neisseria gonorrhoeae, NCTC13821, N. gonorrhoeae NCTC 13821 (WHO Y; CIP-R, AZI MIC 1), broth microdilution, read-out: MIC) was 0.5 µg/mL (≈ 0.668 µM), the MIC50 (Neisseria gonorrhoeae; Neisseria gonorrhoeae, 30 isolates of N. gonorrhoeae, broth microdilution, read-out: MIC50) was 0.25 µg/mL (≈ 0.334 µM) and the MIC90 (Neisseria gonorrhoeae; Neisseria gonorrhoeae, 30 isolates of N. gonorrhoeae, broth microdilution, read-out: MIC90) was over 8 µg/mL. The MIC (Neisseria gonorrhoeae; Neisseria gonorrhoeae, 30 isolates of N. gonorrhoeae, broth microdilution, read-out: MIC Mode) was 0.25 µg/mL (≈ 0.334 µM) and the MIC [1] was 0.5 µg/mL (≈ 0.668 µM).
